Source: patent US20090036448A1, “PYRIMIDINE DERIVATIVES AND METHODS OF TREATMENT RELATED TO THE USE THEREOF” (TAISHO PHARMECUTICAL CO., LTD., priority 2004, published 2009)
Structures can show the parent of a compound that is named as a salt.

target: MCH receptor (Homo sapiens, UniProt Q99705); test: FLIPR/FDSS6000 functional assay: intracellular Ca2+ changes evoked by MCH; assay type: cell-based; conditions: antagonist activity, 50 nM of MCH, [Ca2+]i by FLIPR or FDSS; read-out: IC50
Excerpt: Subsequently, a functional based assay was used to confirm the lead hits, referred to as FLIPR™ (the Fluorometric Imaging Plate Reader) and FDSS6000™ (Functional Drug Screening System). This assay utilized a non-endogenous, constitutively active version of the MCH receptor.
The FLIPR and FDSS assays are able to detect intracellular Ca^2+ concentration in cells, which can be utilized to assess receptor activation and determine whether a candidate compound is an, for example, antagonist, inverse agonist or agonist to a Gq-coupled receptor. The concentration of free Ca^2+ in the cytosol of any cell is extremely low, whereas its concentration in the extracellular fluid and endoplasmic reticulum (ER) is very high. Thus, there is a large gradient tending to drive Ca^2+ into the cytosol across both the plasma membrane and ER. The FLIPR™ and FDSS6000™ systems (Molecular Devices Corporation, HAMAMATSU Photonics K.K.) are designed to perform functional cell-based assays, such as the measurement of intracellular calcium for high-throughput screening. The measurement of fluorescent is associated with calcium release upon activation of the Gq-coupled receptors.
Fluorometric Imaging Plate Reader system was used to allow for rapid, kinetic measurements of intracellular fluorescence in 96 well microplates (or 384 well microplates). Simultaneous measurements of fluorescence in all wells can be made by FLIPR or FDSS6000™ every second with high sensitivity and precision. These systems are ideal for measuring cell-based functional assays such as monitoring the intracellular calcium fluxes that occur within seconds after activation of the Gq coupled receptor.
Briefly, the cells are seeded into 96 well at 5.5×10^4 cells/well with complete culture media (Dulbecco's Modified Eagle Medium with 10% fetal bovine serum, 2 mM L-glutamine, 1 mM sodium pyruvate and 0.5 mg/mL G418, pH 7.4) for the assay next day. On the day of assay, the media is removed and the cells are incubated with 100 μl of loading buffer (4 μM Fluo-4-AM in complete culture media containing 2.5 mM Probenicid, 0.5 mg/ml and 0.2% bovine serum albumin) in 5% CO2 incubator at 37° C. for 1 hr. The loading buffer is removed, and the cells are washed with wash buffer (Hank's Balanced Salt Solution containing 2.5 mM Probenicid, 20 mM HEPES, 0.5 mg/mL and 0.2% bovine serum albumin, pH 7.4). One hundred fifty μl of wash buffer containing various concentrations of test compound is added to the cells, and the cells are incubated in 5% CO2 incubator at 37° C. for 30 min. Fifty μl of wash buffer containing various concentration of MCH are added to each well, and transient changes in [Ca^2+]i evoked by MCH are monitored using the FLIPR or FDSS in 96 well plates at Ex. 488 nm and Em. 530 nm for 290 second. When antagonist activity of compound is tested, 50 nM of MCH is used.
Use of FLIPR™ and FDSS6000™ can be accomplished by following manufacturer's instruction (Molecular Device Corporation and HAMAMATSU Photonics K.K.).

| SMILES | IC50 [nM] |
| --- | --- |
| Cc1nc(N[C@H]2CC[C@@H](NC(=O)c3ccc(F)cc3)CC2)cc(N(C)C)n1 [Example 7, N-(cis-4-{[6-(Dimethylamino)-2-methylpyrimidin-4-yl]amino}cyclohexyl)-4-fluorobenzamide hydrochloride] | 101 |
| Cc1nc(N[C@H]2CC[C@@H](NC(=O)c3cccc(Cl)c3)CC2)cc(N(C)C)n1 [Example 24, 3-Chloro-N-(cis-4-{[6-(dimethylamino)-2-methylpyrimidin-4-yl]amino}cyclohexyl)-benzamide hydrochloride] | 26 |

same assay, conditions: class by percent of control at 10^−7 M or by IC50; antagonist activity, 50 nM of MCH; read-out: class

| SMILES | IC50 [nM] |
| --- | --- |
| CN(C)c1cc(N[C@H]2CC[C@@H](NC(=O)c3ccc(F)c(F)c3)CC2)ncn1 [Example 2, N-(cis-4-{[6-(1-Dimethylamino)pyrimidin-4-yl]amino}cyclohexyl)-3,4-difluorobenzamide hydrochloride] | 50 to 200 |
| CN(C)c1cc(NC[C@H]2CC[C@@H](NC(=O)c3ccc(F)c(F)c3)CC2)ncn1 [Example 3, N-[cis-4-({[6-(Dimethylamino)pyrimidin-4-yl]amino}methyl)cyclohexyl]-3,4-difluorobenzamide hydrochloride] | > 200 |
| CN(C)c1cc(N[C@H]2CC[C@@H](CNC(=O)c3ccc(F)c(F)c3)CC2)ncn1 [Example 4, N-[(cis-4-{[6-(Dimethylamino)pyrimidin-4-yl]amino}cyclohexyl)methyl]-3,4-difluorobenzamide hydrochloride] | > 200 |
| Cc1nc(N[C@H]2CC[C@@H](NC(=O)c3ccc(F)c(F)c3)CC2)cc(N(C)C)n1 [Example 5, N-(cis-4-{[6-(Dimethylamino)-2-methylpyrimidin-4-yl]amino}cyclohexyl)-3,4-difluorobenzamide hydrochloride] | < 50 |
| Cc1nc(N[C@H]2CC[C@@H](NC(=O)c3ccc(F)c(Cl)c3)CC2)cc(N(C)C)n1 [Example 6, 3-Chloro-N-(cis-4-{[6-(dimethylamino)-2-methylpyrimidin-4-yl]amino}cyclohexyl)-4-fluorobenzamide hydrochloride] | < 50 |
| Cc1nc(N[C@H]2CC[C@@H](NC(=O)c3ccc(F)cc3)CC2)cc(N(C)C)n1 [Example 7, N-(cis-4-{[6-(Dimethylamino)-2-methylpyrimidin-4-yl]amino}cyclohexyl)-4-fluorobenzamide hydrochloride] | 50 to 200 |
| Cc1nc(N[C@H]2CC[C@@H](NC(=O)c3ccc(Cl)c(Cl)c3)CC2)cc(N(C)C)n1 [Example 8, 3,4-Dichloro-N-(cis-4-{[6-(dimethylamino)-2-methylpyrimidin-4-yl]amino}cyclohexyl)-benzamide hydrochloride] | < 50 |
| Cc1nc(N[C@H]2CC[C@@H](NC(=O)c3ccc(Cl)c(F)c3)CC2)cc(N(C)C)n1 [Example 9, 4-Chloro-N-(cis-4-{[6-(dimethylamino)-2-methylpyrimidin-4-yl]amino}cyclohexyl)-3-fluorobenzamide hydrochloride] | 50 to 200 |
| Cc1nc(N[C@H]2CC[C@@H](NC(=O)c3cc(F)cc(Cl)c3)CC2)cc(N(C)C)n1 [Example 10, 3-Chloro-N-(cis-4-{[6-(dimethylamino)-2-methylpyrimidin-4-yl]amino}cyclohexyl)-5-fluorobenzamide hydrochloride] | < 50 |
| Cc1nc(N[C@H]2CC[C@@H](NC(=O)c3cc(F)c(F)c(F)c3)CC2)cc(N(C)C)n1 [Example 11, N-(cis-4-{[6-(Dimethylamino)-2-methylpyrimidin-4-yl]amino}cyclohexyl)-3,4,5-trifluorobenzamide hydrochloride] | < 50 |
| Cc1nc(N[C@H]2CC[C@@H](NC(=O)c3cncc(Br)c3)CC2)cc(N(C)C)n1 [Example 12, 5-Bromo-N-(cis-4-{[6-(dimethylamino)-2-methylpyrimidin-4-yl]amino}cyclohexyl)-nicotinamide dihydrochloride] | 50 to 200 |
| Cc1nc(N[C@H]2CC[C@@H](NC(=O)c3cc(F)cc(F)c3)CC2)cc(N(C)C)n1 [Example 13, N-(cis-4-{[6-(Dimethylamino)-2-methylpyrimidin-4-yl]amino}cyclohexyl)-3,5-difluorobenzamide hydrochloride] | 50 to 200 |
| Cc1nc(N[C@H]2CC[C@@H](NC(=O)c3ccc(F)c(C(F)(F)F)c3)CC2)cc(N(C)C)n1 [Example 14, N-(cis-4-{[6-(Dimethylamino)-2-methylpyrimidin-4-yl]amino}cyclohexyl)-4-fluoro-3-(trifluoromethyl)benzamide hydrochloride] | < 50 |
| Cc1nc(N[C@H]2CC[C@@H](NC(=O)c3ccc(C(F)(F)F)c(F)c3)CC2)cc(N(C)C)n1 [Example 15, N-(cis-4-{[6-(Dimethylamino)-2-methylpyrimidin-4-yl]amino}cyclohexyl)-3-fluoro-4-(trifluoromethyl)benzamide hydrochloride] | > 200 |
| Cc1nc(N[C@H]2CC[C@@H](NC(=O)c3ccc(OC(F)(F)F)c(Cl)c3)CC2)cc(N(C)C)n1 [Example 16, 3-Chloro-N-(cis-4-{[6-(dimethylamino)-2-methylpyrimidin-4-yl]amino}cyclohexyl)-4-(trifluoromethoxy)benzamide hydrochloride] | 50 to 200 |
| Cc1nc(N[C@H]2CC[C@@H](NC(=O)c3cccc(C(F)(F)F)c3)CC2)cc(N(C)C)n1 [Example 17, N-(cis-4-{[6-(Dimethylamino)-2-methylpyrimidin-4-yl]amino}cyclohexyl)-3-(trifluoromethyl)-benzamide hydrochloride] | < 50 |
| Cc1nc(N[C@H]2CC[C@@H](NC(=O)c3cccc(OC(F)(F)F)c3)CC2)cc(N(C)C)n1 [Example 18, N-(cis-4-{[6-(Dimethylamino)-2-methylpyrimidin-4-yl]amino}cyclohexyl)-3-(trifluoromethoxy)benzamide hydrochloride] | < 50 |
| Cc1nc(N[C@H]2CC[C@@H](NC(=O)c3ccc(C(F)(F)F)cc3)CC2)cc(N(C)C)n1 [Example 19, N-(cis-4-{[6-(Dimethylamino)-2-methylpyrimidin-4-yl]amino}cyclohexyl)-4-(trifluoromethyl)benzamide hydrochloride] | > 200 |
| Cc1nc(N[C@H]2CC[C@@H](NC(=O)c3ccc(OC(F)(F)F)cc3)CC2)cc(N(C)C)n1 [Example 20, N-(cis-4-{[6-(Dimethylamino)-2-methylpyrimidin-4-yl]amino}cyclohexyl)-4-(trifluoromethoxy)benzamide hydrochloride] | > 200 |
| Cc1nc(N[C@H]2CC[C@@H](NC(=O)c3cc(Cl)cc(Cl)c3)CC2)cc(N(C)C)n1 [Example 21, 3,5-Dichloro-N-(cis-4-{[6-(dimethylamino)-2-methylpyrimidin-4-yl]amino}cyclohexyl)-benzamide hydrochloride] | < 50 |
| Cc1nc(N[C@H]2CC[C@@H](NC(=O)c3ccccc3F)CC2)cc(N(C)C)n1 [Example 22, N-(cis-4-{[6-(Dimethylamino)-2-methylpyrimidin-4-yl]amino}cyclohexyl)-2-fluorobenzamide hydrochloride] | > 200 |
| Cc1nc(N[C@H]2CC[C@@H](NC(=O)c3cccc(F)c3)CC2)cc(N(C)C)n1 [Example 23, N-(cis-4-{[6-(Dimethylamino)-2-methylpyrimidin-4-yl]amino}cyclohexyl)-3-fluorobenzamide hydrochloride] | 50 to 200 |
| Cc1nc(N[C@H]2CC[C@@H](NC(=O)c3cccc(Cl)c3)CC2)cc(N(C)C)n1 [Example 24, 3-Chloro-N-(cis-4-{[6-(dimethylamino)-2-methylpyrimidin-4-yl]amino}cyclohexyl)-benzamide hydrochloride] | < 50 |
| Cc1nc(N[C@H]2CC[C@@H](NC(=O)c3ccc(Cl)cc3)CC2)cc(N(C)C)n1 [Example 25, 4-Chloro-N-(cis-4-{[6-(dimethylamino)-2-methylpyrimidin-4-yl]amino}cyclohexyl)-benzamide hydrochloride] | 50 to 200 |
| Cc1nc(N[C@H]2CC[C@@H](NC(=O)c3cc(F)cc(C(F)(F)F)c3)CC2)cc(N(C)C)n1 [Example 26, N-(cis-4-{[6-(Dimethylamino)-2-methylpyrimidin-4-yl]amino}cyclohexyl)-3-fluoro-5-(trifluoromethyl)benzamide hydrochloride] | 50 to 200 |
| Cc1nc(N[C@H]2CC[C@@H](NC(=O)c3cc(C(F)(F)F)cc(C(F)(F)F)c3)CC2)cc(N(C)C)n1 [Example 27, N-(cis-4-{([6-(Dimethylamino)-2-methylpyrimidin-4-yl]amino}cyclohexyl)-3,5-bis-(trifluoromethyl)benzamide hydrochloride] | 50 to 200 |
| Cc1nc(NC[C@H]2CC[C@@H](NC(=O)c3ccc(F)c(F)c3)CC2)cc(N(C)C)n1 [Example 28, N-[cis-4-({[6-(Dimethylamino)-2-methylpyrimidin-4-yl]amino}methyl)cyclohexyl]-3,4-difluorobenzamide hydrochloride] | > 200 |
